Results from patent publication US11660326B2, “Bacterial-binding peptides for treatment of infectious diseases and related inflammatory processes” (priority 2018, dated 2023).

Legend:
[1] = test system: G+ and G− bacterial suspensions (including MDR strains); assay: Bacterial agglutination assay; type: cell-based; details: peptide 5, 50 and 200 μg/mL; G+ and G− bacterial suspensions incl. MDR strains
Description: FIG. 2. Bacterial agglutination properties of CD6-derived peptides. Increasing concentrations (5, 50 and 200 μg/mL) of the indicated CD6 (PD1, PD2, and PD3), DMBT-1 (pbs1; C+) and CD5 (PD2; C-)-derived peptides were incubated for 2 h at room temperature in 96-well U-bottomed plates with alive bacterial cell suspensions (75×10^6 CFU/mL) in TTC buffer (50 mM Tris pH 7.5 plus 150 mM NaCl, 0.1% Tween 20, and 1 mM Ca^2+). Bacterial agglutination was scored and condensed by two independent observers as −, +/−, +, ++ or +++. (A) Summary of the agglutination results obtained with the indicated panel of Gram-negative (Multidrug resistant Acinetobacter baumanii clinical isolate; Enterobacter cloacae ATCC 23355; Escherichia coli ATCC 25922; Klebsiella pneumoniae ATCC 13883; […]; Pseudomonas aeruginosa ATCC 27853) and Gram-positive (Staphyloccocus aureus ATCC 25923; Methicilin-resistant Staphylococus aureus (MRSA) clinical isolate) bacterial strains. (B) Representative agglutination results obtained for the MRSA clinical isolate.
5×10^8 colony-forming units (CFU)/mL diluted in TTC buffer (50 mM Tris pH 7.5 plus 150 mM NaCl, 0.1% Tween 20, and 1 mM Ca^2+) were mixed (1:1) with different peptide concentrations (0-200 μg/mL) in 96 U-bottomed well microtiter plates (Biofil) (Bikker F J, et al., 2002, Identification of the bacteria-binding peptide domain on salivary agglutinin (gp-340/DMBT1), a member of the scavenger receptor cysteine-rich superfamily, J Biol Chem 277:32109-15). After overnight incubation at 37° C., bacterial agglutination was examined by light microscopy and scored from -(absent) to +++ (maximal) by two independent observers. […]

[2] = Dynamic light scattering (DLS), hydrodynamic size of peptides in solution; type: physicochemical; details: 10 μg/mL in PBS, 25° C.
Description: FIG. 5. Analysis of the hydrodynamic size of CD6-derived peptides in solution. The dynamic light scattering (DLS) analysis of the hydrodynamic diameter of CD6 (PD1, PD2, PD3, and Pcons) and DMBT-1/SAG (pbs1) derived peptides (10 μg/mL) in PBS is shown. The y axis represents the relative intensity of the scattered light; the x axis denotes the hydrodynamic diameter of the particles present in the solution. One representative experiment of four performed is shown (left). The numeric values obtained for each peptide are also shown (right).
The hydrodynamic diameters of peptides (10 μg/mL in PBS) were measured at 25° C. in a Zetasizer Nano S from Malvern Instruments (Worcestershire, UK) equipped with a 633 nm HeNe laser, as described (Saenz A, et al., 2010, Fluidizing effects of C-reactive protein on lung surfactant membranes: protective role of surfactant protein A, FASEB J 24:3662-73). Four scans were recorded for each sample, and samples were analyzed in triplicate.

[3] = test system: mice undergoing CLP-induced septic shock; assay: Mouse survival following CLP-induced septic shock; type: in vivo, C57BL/6J mice; details: for survival: single 6 mg/kg i.v. at +1 h post CLP, FIG. 7; for effect on mice survival, in words: CLP-induced sepsis, compared to saline-treated group
Description: FIG. 7. Comparative therapeutic effects of i.v. infused CD6-derived peptides on mouse survival following Cecal Ligation and Puncture (CLP)-induced sepsis. (A, B) C57BL/6J mice were i.v. infused with saline (n=25) or single 6 mg/kg doses of unlabeled CD6- (PD1, n=8; PD2, n=16; PD3, n=15; Pcons, n=12) or DMBT1 (pbs1, n=13) derived peptides at +1 h post CLP induction. A sham group (n=3) was included. In all cases average percent survival was analyzed over time for each group and compared with the saline-treated group using the long-rank t-test (*, P<0.05; **, P<0.01; ***, P<0.001).
FIG. 8. Dose-, time- and via-dependent effects of CD6.PD3 infusion on mouse survival following CLP-induced sepsis. (A) C57BL/6 mice were i.v. infused at +1 h post CLP with saline (n=26) or single increasing doses (3 mg/kg, n=13; 6 mg/kg, n=15; and 12 mg/kg, n=8) of CD6.PD3 peptide. (B) C57BL/6 mice were i.v. infused with saline (n=4) or 6 mg/kg CD6.PD3 at different times post CLP (+1 h, n=5; +3 h, n=5; +6 h, n=6). (C) C57BL/6J mice were i.v. (n=11) or i.p. (n=9) infused with 6 mg/kg CD6.PD3 peptide or saline (n=9) at +1 h post CLP. In all cases, average percent of survival was analyzed over time and compared with the saline-treated group using a log-rank t-test (n.s., not significant; *, P<0.05. **, P<0.01; ***, P<0.001).
FIG. 10. Additive effects of combined administration of CD6.PD3 plus Imipenem/Cilastatin on mouse survival following CLP-induced sepsis. C57BL/6J mice were therapeutically infused at +1 h post CLP with saline (n=36), CD6.PD3 (6 mg/kg i.v.; n=25), Imipenem/Cilastatin (I/C, 50 mg/kg/12 h i.p.; n=9) or a combination of the two later (I/C+PD3, n=11). In all cases average percent survival was analyzed over time for each group and compared to the I/C plus CD6.PD3 group using the long-rank t-test (**, P<0.02; ***, P<0.002).
Animal procedures were approved by the Animal Experimentation Ethical Committee, University of Barcelona. High-grade mortality (≥90% mortality within the first 48-72 h) CLP-induced septic shock was induced in 8-10 week old C57BL/6J male mice (20-25 g; Charles River) as previously reported (Martinez-Florensa M, et al., 2017, Protective Effects of Human and Mouse Soluble Scavenger-Like CD6 Lymphocyte Receptor in a Lethal Model of Polymicrobial Sepsis, Antimicrob Agents Chemother 61:e01391-16).
Survival assays were analyzed by a Log-Rank χ^2 test using GraphPad Prism software. The significance of differences between experimental groups was determined by 2-tailed paired T test with 95% of confidence intervals (CI). P values were considered significant when P<0.05. Statistical analysis (mean±SEM) was performed using a 2-tailed Mann-Whitney test, with 95% of Cl.

Sequence	bacterial agglutination [1]	hydrodynamic size, first (or single) peak [2] [nm]	survival [3] [%]	hydrodynamic size, second peak [2] [nm]	effect on mice survival, in words [3]	survival rate post CLP ([3]; 3 mg/kg i.v. at +1 h post CLP, FIG. 8A) [%]	survival, i.v. versus i.p. pathway ([3]; 6 mg/kg at +1 h post CLP, FIG. 8C)	survival rate post CLP ([3]; 6 mg/kg i.v. at +1 h post CLP, FIG. 8A) [%]	survival rate post CLP ([3]; 6 mg/kg i.v. at +1 h post CLP, FIG. 8B) [%]	survival rate post CLP ([3]; 6 mg/kg i.v. at +3 h post CLP, FIG. 8B) [%]	survival rate post CLP ([3]; 12 mg/kg i.v. at +1 h post CLP, FIG. 8A) [%]	mice survival ([3]; +1 h post CLP, CD6.PD3 6 mg/kg i.v., Imipenem/Cilastatin 50 mg/kg/12 h i.p., FIG. 10) [%]
GRVEMLEHGEW [CD6.PD2]	not and lower bacterial agglutination properties	379±5	12.5	–	–	–	–	–	–	–	–	–
GTVEVRLEASW [CD6.PD1]	dose-dependent agglutination	321±5	–	1484±8	No significant effects	–	–	–	–	–	–	–
GQVEVHFRGVW (CD6.PD3)	dose-dependent agglutination	630±3	36.36	5151±7	improves the survival	23.08	No significant differences	37.5	40	20	40	30.8
